One data set concerns mouse IgG (IgG-AF647). As to the kind of experiment: Cellular uptake of IgG-AF647 in HUH7 cells. The data set is classed as cell-based. Particulars: HUH7 cells incubated with inhibitor. As for the experimental part:
To assess whether a bifunctional molecule comprising ASGPR ligands could indeed shuttle cargo to lysosomes in hepatocytes, an assay schematically illustrated in FIG. 21 was employed. A bifunctional molecule comprising an anti-mouse IgG antibody conjugated to a poly(GalNAc-co-Ala) polymer was tested to determine whether the bifunctional molecule could shuttle extracellular fluorescent-labeled mouse IgG (IgG-AF647) into the intracellular compartment of hepatocytes. […] HEPG2 cells (hepatocellular carcinoma cell line) were incubated with 50 nM IgG-AF647 and 25 nM of anti-mouse conjugates for 1 hour. Cellular uptake was analyzed by flow cytometry. As shown by the bar graph, an approximately 8-fold increase in cell fluorescence was observed using the GalNAc-containing conjugate while the M6Pn-containing conjugate induced 2-fold increase over background.
Shown in FIG. 22 are results from the assay described for FIG. 21 but in HUH7 cells (another hepatocellular carcinoma cell line). […] In addition, controls were included in which the cells were incubated with M6PR or ASGPR inhibitors (monomeric M6P (mM6P) and monomeric GalNAc (mGalNAc), respectively).

Data set [1] concerns the target cation independent M6PR (CIM6PR) (Homo sapiens, UniProt P11717). Particulars: relative to mannose-6-phosphate glycans; cited from earlier work.
The conditions of data set [2]: cited from earlier work.

Chain of cation independent M6PR (CIM6PR) (P11717 41-2491): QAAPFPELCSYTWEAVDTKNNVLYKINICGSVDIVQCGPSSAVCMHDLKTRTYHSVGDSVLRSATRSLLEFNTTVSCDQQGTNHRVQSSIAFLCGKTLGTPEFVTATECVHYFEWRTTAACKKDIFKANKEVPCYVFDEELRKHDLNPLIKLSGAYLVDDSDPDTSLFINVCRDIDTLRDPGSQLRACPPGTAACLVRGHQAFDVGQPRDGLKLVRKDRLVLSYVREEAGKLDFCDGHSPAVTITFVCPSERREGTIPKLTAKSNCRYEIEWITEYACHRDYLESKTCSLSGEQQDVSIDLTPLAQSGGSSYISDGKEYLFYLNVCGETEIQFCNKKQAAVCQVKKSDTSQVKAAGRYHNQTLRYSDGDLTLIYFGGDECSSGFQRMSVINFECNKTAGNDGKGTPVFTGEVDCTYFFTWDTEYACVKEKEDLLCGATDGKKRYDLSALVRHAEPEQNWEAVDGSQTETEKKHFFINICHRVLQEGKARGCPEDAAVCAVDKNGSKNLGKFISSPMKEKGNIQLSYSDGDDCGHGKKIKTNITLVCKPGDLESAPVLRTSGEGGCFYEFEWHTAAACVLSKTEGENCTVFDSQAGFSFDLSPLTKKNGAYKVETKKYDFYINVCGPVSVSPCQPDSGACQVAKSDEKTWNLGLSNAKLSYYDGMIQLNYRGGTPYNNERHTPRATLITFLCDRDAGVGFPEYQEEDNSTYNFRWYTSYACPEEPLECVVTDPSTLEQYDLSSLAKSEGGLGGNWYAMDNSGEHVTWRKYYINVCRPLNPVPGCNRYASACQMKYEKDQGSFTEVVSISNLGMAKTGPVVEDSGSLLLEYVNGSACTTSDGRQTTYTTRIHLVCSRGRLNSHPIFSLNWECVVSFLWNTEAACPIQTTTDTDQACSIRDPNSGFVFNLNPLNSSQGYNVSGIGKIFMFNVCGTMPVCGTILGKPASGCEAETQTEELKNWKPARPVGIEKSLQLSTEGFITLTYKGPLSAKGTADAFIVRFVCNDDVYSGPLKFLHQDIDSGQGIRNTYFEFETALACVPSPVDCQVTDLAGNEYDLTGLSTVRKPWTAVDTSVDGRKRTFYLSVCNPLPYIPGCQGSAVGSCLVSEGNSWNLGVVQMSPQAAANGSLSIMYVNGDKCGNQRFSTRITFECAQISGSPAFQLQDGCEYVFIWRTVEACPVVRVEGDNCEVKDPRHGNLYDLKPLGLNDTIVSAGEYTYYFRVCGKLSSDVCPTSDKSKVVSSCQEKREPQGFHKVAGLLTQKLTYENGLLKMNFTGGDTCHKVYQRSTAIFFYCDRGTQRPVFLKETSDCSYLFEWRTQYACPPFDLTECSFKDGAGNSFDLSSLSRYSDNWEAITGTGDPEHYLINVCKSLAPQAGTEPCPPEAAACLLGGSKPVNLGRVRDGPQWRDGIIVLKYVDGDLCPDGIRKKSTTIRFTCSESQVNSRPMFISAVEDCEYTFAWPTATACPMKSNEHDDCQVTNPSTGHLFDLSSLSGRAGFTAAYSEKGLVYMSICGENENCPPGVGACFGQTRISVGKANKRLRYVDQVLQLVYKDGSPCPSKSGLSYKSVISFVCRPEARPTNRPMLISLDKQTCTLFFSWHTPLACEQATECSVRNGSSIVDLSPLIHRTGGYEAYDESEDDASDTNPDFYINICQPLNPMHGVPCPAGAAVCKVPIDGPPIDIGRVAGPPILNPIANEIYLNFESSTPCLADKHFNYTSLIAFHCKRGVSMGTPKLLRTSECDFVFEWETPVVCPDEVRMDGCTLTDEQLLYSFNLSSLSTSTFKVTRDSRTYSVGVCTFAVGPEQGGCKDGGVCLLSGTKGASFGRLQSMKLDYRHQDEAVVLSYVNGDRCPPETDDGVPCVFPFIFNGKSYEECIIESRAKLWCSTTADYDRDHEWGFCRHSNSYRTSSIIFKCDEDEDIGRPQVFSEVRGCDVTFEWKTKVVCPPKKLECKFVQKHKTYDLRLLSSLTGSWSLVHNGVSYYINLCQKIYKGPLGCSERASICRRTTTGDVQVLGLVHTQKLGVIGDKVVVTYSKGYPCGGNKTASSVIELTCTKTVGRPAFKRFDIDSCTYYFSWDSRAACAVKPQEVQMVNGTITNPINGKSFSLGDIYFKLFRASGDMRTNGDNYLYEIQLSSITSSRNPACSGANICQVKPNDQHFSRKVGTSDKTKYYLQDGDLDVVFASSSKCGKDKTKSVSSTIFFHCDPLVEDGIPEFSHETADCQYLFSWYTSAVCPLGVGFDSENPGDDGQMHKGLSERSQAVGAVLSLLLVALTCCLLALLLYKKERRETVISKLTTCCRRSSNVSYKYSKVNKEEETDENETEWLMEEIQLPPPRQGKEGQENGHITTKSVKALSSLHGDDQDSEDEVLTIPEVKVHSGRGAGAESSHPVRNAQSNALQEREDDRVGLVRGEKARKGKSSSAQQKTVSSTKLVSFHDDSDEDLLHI

Turning to `O=P(O)(O)OC[C@H]1OC(O)[C@@H](O)[C@@H](O)[C@@H]1O` (some centres unmarked) [mM6P, monomeric M6P], in the data set with mouse IgG (IgG-AF647), the “uptake of IgG-AF647 with conjugates in presence of M6PR or ASGPR inhibitor” value was “Uptake was reduced”.

For the compound `C=CC(=O)OC[C@@H](O)[C@@H](O)[C@H](O)[C@H](O)C=O` [Mannose-6-acrylate glycans, Mannose-6-acrylate], the “relative binding affinity for the CIM6PR, compared to mannose-6-phosphate glycans” value in data set [1] is 0.7. Besides, in data set [2], the “serum stability compared to mannose-6-phosphate glycans” value is “better serum stability”. In the case of “Mannose-6-carboxylate [Mannose-6-carboxylate glycans]”, the “relative binding affinity for the CIM6PR, compared to mannose-6-phosphate glycans” value in data set [1] is 0.3. `CC(=O)N[C@H]1C(O)O[C@H](CO)[C@H](O)[C@@H]1O` (mixture of isomers) [mGalNAc, monomeric GalNAc]: the “uptake of IgG-AF647 with conjugates in presence of M6PR or ASGPR inhibitor” value in the data set with mouse IgG (IgG-AF647) is reported as “Uptake was reduced”.

The values are drawn from patent US11787865B2, “Bifunctional molecules for lysosomal targeting and related compositions and methods” (The Board of Trustees of the Leland Stanford Junior …, priority 2018, dated 2023).
